Data published in patent US6630075B2, “Use of fluorinated ketones in fire extinguishing compositions” (3M Innovative Properties Company, priority 1999, dated 2003).

Assay: Micro-Cup Burner Test (extinguishing concentration; Mass Ratio Calculation vs HALON 1211)
Settings: for Mass Ratio to HALON™ 1211: calculated from extinguishing volume % and molecular weight relative to HALON 1211 (165 g/mole); for Ext. Conc. (vol %): volume % in air required to extinguish the flame within an average time of 30 seconds or less, propane fuel
Text: The Micro-Cup Burner Test is a laboratory test which measures the extinguishing ability of an agent based on the quantity of agent required to extinguish a fire under the following test conditions. The Micro-Cup Burner Test utilizes a quartz concentric-tube laminar-diffusion flame burner (micro-cup burner, of similar design to the above-described cup apparatus) aligned vertically with all flows upward. A fuel, typically propane unless otherwise specified, flows at 10.0 sccm (standard cubic centimeters per minute) through a 5-mm I.D. inner quartz tube which is centered in a 15-mm I.D. quartz chimney. The chimney extends 4.5 cm above the inner tube. Air flows through the annular region between the inner tube and the chimney at 1000 sccm. Prior to the addition of extinguishing composition, a visually stable flame is supported on top of the inner tube, and the resulting combustion products flow out through the chimney. An extinguishing composition to be evaluated is introduced into the air stream upstream of the burner. Liquid compositions are introduced by a syringe pump (which is calibrated to within 1%) and are volatilized in a heated trap. Gaseous compositions are introduced via a mass-flow controller to the air stream upstream from the burner. For consistency, the air-gaseous composition mixture then flows through the heated trap prior to its introduction to the flame burner. All gas flows are maintained by electronic mass-flow controllers which are calibrated to within 2%. The fuel is ignited to produce a flame and is allowed to burn for 90 seconds. After 90 seconds, a specific flow rate of composition is introduced, and the time required for the flame to be extinguished is recorded. The reported extinguishing concentrations are the recorded volume % of extinguishing composition in air required to extinguish the flame within an average time of 30 seconds or less.
The above-mentioned cup burner test measures the performance of an extinguishing composition by determining the minimum volume percent of composition in air required to extinguish a test fire. However, it is often desirable to directly compare the fire performance of an experimental extinguishing composition (e.g., a fluorinated ketone) against the performance of a state-of-the-art extinguishing composition, such as HALON™ 1211 fire extinguishing agent (CF2ClBr, a bromochlorofluorocarbon). One way to make such a comparison is to derive the mass ratio of experimental composition to HALON™ 1211 fire extinguishing agent from the volume percentages of each composition required for extinguishing. The mass ratio can be calculated by dividing the experimental composition's extinguishing volume percent by the HALON™ 1211 agent's extinguishing volume percent and multiplying the resulting quotient (which, according to the ideal gas law, also represents the ratio of mole percents) times the weight average molecular weight of the experimental composition divided by the molecular weight of HALON™ 1211 agent (165 g/mole).
In Comparative Example C1, the extinguishing concentration (volume % in air) of HALON™ 1211 fire extinguishing agent was determined as using the Micro-Cup Burner Test.
In Examples 1-16, the extinguishing concentration of several perfluorinated ketones was also determined using the Micro-Cup Burner Test. The mass ratio as compared to HALON™ 1211 fire extinguishing agent was then calculated using the Mass Ratio Calculation.
In Comparative Examples C2-C11, various fluorinated extinguishing compositions known in the art (hydrofluorocarbons, perfluorocarbons, hydrochlorofluorocarbons, hydrofluoroethers, and iodofluorocarbons) were evaluated for their extinguishing concentration, and subsequently their mass ratios were calculated with respect to HALON™ 1211 agent. […]

FC(F)(F)I [Comparative Example C2, iodotrifluoromethane, reference compound]
Mass Ratio to HALON™ 1211: 1.14 | Ext. Conc. (vol %): 3.5 vol %

O=C(C(F)(F)C(F)(F)C(F)(F)C(F)(F)F)C(F)(C(F)(F)F)C(F)(F)F [Example 16, 1,1,1,2,4,4,5,5,6,6,7,7,7-tridecafluoro-2-trifluoromethylheptan-3-one]
Mass Ratio to HALON™ 1211: 3.00 | Ext. Conc. (vol %): 4.3 vol %

O=C(C(F)(F)C(F)F)C(F)(C(F)(F)F)C(F)(F)F [Example 6, 1,1,1,2,4,4,5,5-octafluoro-2-trifluoromethylpentan-3-one]
Mass Ratio to HALON™ 1211: 2.20 | Ext. Conc. (vol %): 4.4 vol %

O=C(C(F)(F)C(F)(F)OC(F)(F)F)C(F)(C(F)(F)F)C(F)(F)F [Example 14, 1,1,2,2,4,5,5,5-octafluoro-1-trifluoromethoxy-4-trifluoromethylpentan-3-one]
Mass Ratio to HALON™ 1211: 2.76 | Ext. Conc. (vol %): 4.3 vol %

FC(C(F)(F)F)C(F)(F)F [Comparative Example C5, 1,1,1,2,3,3,3-heptafluoropropane, reference compound]
Mass Ratio to HALON™ 1211: 1.90 | Ext. Conc. (vol %): 6.6 vol %

O=C(C(F)(F)F)C(F)(F)C(F)(F)C(F)(F)C(F)(F)C(F)(F)C(F)(F)F [Example 4, 1,1,1,3,3,4,4,5,5,6,6,7,7,8,8,8-hexadecafluorooctan-2-one]
Mass Ratio to HALON™ 1211: 2.17 | Ext. Conc. (vol %): 3.1 vol %

COC(F)(F)C(F)(F)C(F)(F)F [Comparative Example C11, 1,1,1,2,2,3,3-heptafluoro-3-methoxypropane, reference compound]
Mass Ratio to HALON™ 1211: 2.52 | Ext. Conc. (vol %): 7.5 vol %

FC(F)(F)C(F)(F)C(F)(F)F [Comparative Example C6, perfluoro-n-propane, reference compound]
Mass Ratio to HALON™ 1211: 2.05 | Ext. Conc. (vol %): 6.5 vol %

COC(F)(F)C(F)(F)C(F)(F)C(F)(F)F [Comparative Example C10, perfluorobutyl Methyl Ether, reference compound]
Mass Ratio to HALON™ 1211: 2.52 | Ext. Conc. (vol %): 6.1 vol %

O=C(C(F)(F)F)C(F)(F)C(F)(F)F [Example 13, 1,1,1,3,3,4,4,4-octafluorobutan-2-one]
Mass Ratio to HALON™ 1211: 2.68 | Ext. Conc. (vol %): 7.4 vol %

O=C(CC(=O)C(F)(F)F)C(F)(F)F [Example 10, 1,1,1,5,5,5-hexafluoropentan-2,4-dione]
Mass Ratio to HALON™ 1211: 2.55 | Ext. Conc. (vol %): 7.3 vol %

COC(F)(C(F)(F)F)C(F)(C(F)(F)F)C(F)(F)F (stereo not shown) [Comparative Example C9, 1,1,1,2,3,4,4,4-octafluoro-3-trifluoromethyl-2-methoxybutane, reference compound]
Mass Ratio to HALON™ 1211: 2.27 | Ext. Conc. (vol %): 4.5 vol %

O=C1C(F)(F)C(F)(F)C(F)(F)C(F)(F)C1(F)F [Example 15, decafluorocyclohexanone]
Mass Ratio to HALON™ 1211: 2.80 | Ext. Conc. (vol %): 6.0 vol %

FC(F)(Cl)Br [Comparative Example C1, bromochlorodifluoromethane, reference compound]
Mass Ratio to HALON™ 1211: 1.00 | Ext. Conc. (vol %): 3.6 vol %

FC(F)(F)CC(F)(F)F [Comparative Example C3, 1,1,1,3,3,3-hexafluoropropane, reference compound]
Mass Ratio to HALON™ 1211: 1.61 | Ext. Conc. (vol %): 6.3 vol %

FC(F)(F)C(F)(F)C(F)(F)C(F)(F)C(F)(F)C(F)(F)F [Comparative Example C8, perfluoro-n-hexane, reference compound]
Mass Ratio to HALON™ 1211: 2.27 | Ext. Conc. (vol %): 4.0 vol %

O=C(C(F)(F)F)C(F)(C(F)(F)F)C(F)(F)F [Example 5, 1,1,1,3,4,4,4-heptafluoro-3-trifluoromethylbutan-2-one]
Mass Ratio to HALON™ 1211: 2.19 | Ext. Conc. (vol %): 4.9 vol %

O=C(C(F)(F)C(F)(F)C(F)(F)F)C(F)(F)C(F)(F)C(F)(F)F [Example 12, 1,1,1,2,2,3,3,5,5,6,6,7,7,7tetradecafluoroheptan-4-one]
Mass Ratio to HALON™ 1211: 2.64 | Ext. Conc. (vol %): 4.3 vol %

O=C(C(F)(F)Cl)C(F)(C(F)(F)F)C(F)(F)F [Example 8, 1-chloro-1,1,3,4,4,4-hexafluoro-3-trifluoromethyl-butan-2-one]
Mass Ratio to HALON™ 1211: 2.23 | Ext. Conc. (vol %): 4.7 vol %

O=C(C(=O)C(F)(C(F)(F)F)C(F)(F)F)C(F)(C(F)(F)F)C(F)(F)F [Example 11, 1,1,1,2,5,6,6,6-octafluoro-2,5-bis(trifluoromethyl)hexan-3,4-dione]
Mass Ratio to HALON™ 1211: 2.57 | Ext. Conc. (vol %): 4.0 vol %

FC(F)(F)C(F)(F)C(F)(F)C(F)(F)F [Comparative Example C7, perfluoro-n-butane, reference compound]
Mass Ratio to HALON™ 1211: 2.12 | Ext. Conc. (vol %): 5.3 vol %

O=C(C(F)(F)C(F)(F)F)C(F)(F)C(F)(F)C(F)(F)F [Example 9, 1,1,1,2,2,4,4,5,5,6,6,6-dodecafluorohexan-3-one]
Mass Ratio to HALON™ 1211: 2.39 | Ext. Conc. (vol %): 4.5 vol %

CC(=O)C(F)(F)C(F)(F)C(F)(F)C(F)(F)F [Comparative Example C13, perfluorobutyl methyl ketone, reference compound]
Mass Ratio to HALON™ 1211: 2.77 | Ext. Conc. (vol %): 6.3 vol %

CC(=O)C(F)(C(F)(F)F)C(F)(F)F [Comparative Example C12, 3,4,4,4-tetrafluoro-3-trifluoromethylbutan-2-one, reference compound]
Mass Ratio to HALON™ 1211: 2.42 | Ext. Conc. (vol %): 6.8 vol %

O=C(C(F)(C(F)(F)F)C(F)(F)F)C(F)(C(F)(F)F)C(F)(F)F [Example 2, 1,1,1,2,4,5,5,5,6,6,6-octafluoro-2,4-bis(trifluoromethyl)pentan-3-one]
Mass Ratio to HALON™ 1211: 2.03 | Ext. Conc. (vol %): 3.3 vol %

O=C(C(F)(F)C(F)(F)C(F)(F)F)C(F)(C(F)(F)F)C(F)(F)F [Example 7, 1,1,1,2,4,4,5,5,6,6,6-undecafluoro-2-trifluoromethylhexan-3-one]
Mass Ratio to HALON™ 1211: 2.21 | Ext. Conc. (vol %): 3.6 vol %
